Some test systems named below: 786-0 renal; COLO 205 colon; MDA-MB-231 breast; NCI-H23 lung; NCI-H460 lung; SR leukemia; SK-OV-3 ovarian; M14 melanoma; A498 renal; HCT-15 colon.
Holding throughout (test): growth of human tumour cells (NCI), 48 h

Molecules are shown by their SMILES.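 Cultured in 96-well plates, cells were exposed to test compound for 48 hours across five concentrations. GI50: concentration for 50% inhibition of growth. TGI denotes the concentration required for complete inhibition of growth.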

For the molecule `Cc1ccc(S(=O)(=O)Oc2ccc3c4c(c(=O)oc3c2)CCCCCC4)cc1`, the GI50 in the assay with 786-0 renal is greater than 100 µM; in the assay with COLO 205 colon, 2.92 µM; in the assay with MDA-MB-231 breast it was greater than 100 µM; in the assay on NCI-H23 lung, greater than 100 µM; in the assay with NCI-H460 lung, greater than 100 µM; in the assay with SR leukemia, 5.66 µM. The GI50 in the assay on SK-OV-3 ovarian is greater than 100 µM; in the assay on M14 melanoma, greater than 100 µM; in the assay with A498 renal, 4.43 µM; in the assay on HCT-15 colon, 3.16 µM. Moreover, the TGI in the assay on 786-0 renal, in the assay with COLO 205 colon, in the assay on MDA-MB-231 breast, in the assay with NCI-H23 lung, in the assay on NCI-H460 lung and with SR leukemia was greater than 100 µM each time. The TGI in the assay on SK-OV-3 ovarian, with M14 melanoma, in the assay on A498 renal and with HCT-15 colon was greater than 100 µM throughout.

For `COc1c(C(C)=O)c(OCCCCOc2c(C(C)=O)c(OC)c3ccoc3c2OC)c(OC)c2occc12`, the GI50 was greater than 100 µM in the assay on 786-0 renal; 4.35 µM in the assay on COLO 205 colon; 4.64 µM with NCI-H23 lung; greater than 24.3 µM in the assay on NCI-H460 lung; 0.258 µM in the assay with SR leukemia; greater than 100 µM in the assay with SK-OV-3 ovarian. The values for the GI50 with M14 melanoma, in the assay with A498 renal and in the assay with HCT-15 colon were 2.55 µM, greater than 100 µM and 3.88 µM, respectively. Besides, the TGI in the assay on 786-0 renal is greater than 100 µM; with COLO 205 colon, greater than 100 µM; in the assay on MDA-MB-231 breast, greater than 100 µM; in the assay with NCI-H23 lung, greater than 100 µM; in the assay on NCI-H460 lung it was greater than 100 µM; in the assay on SR leukemia it was 7.72 µM. In addition, the TGI in the assay with SK-OV-3 ovarian, in the assay on M14 melanoma, in the assay with A498 renal and in the assay with HCT-15 colon was greater than 100 µM in each case.

`CN(C)c1ccc(Nc2c3ccccc3nc3ccccc23)cc1`: the GI50 was 1.29 µM with 786-0 renal; 0.82 µM in the assay with COLO 205 colon; 1.3 µM in the assay with MDA-MB-231 breast; 1.1 µM with NCI-H23 lung; 0.367 µM in the assay with NCI-H460 lung; 0.297 µM with SR leukemia. Besides, the GI50 was 1.27 µM in the assay on SK-OV-3 ovarian, 1.22 µM in the assay on M14 melanoma, 0.353 µM in the assay on A498 renal and 0.959 µM with HCT-15 colon. In addition, the TGI was determined as 3.13 µM with 786-0 renal; 2.16 µM in the assay on COLO 205 colon; 3.32 µM in the assay with MDA-MB-231 breast; 2.92 µM in the assay on NCI-H23 lung; 1.72 µM in the assay on NCI-H460 lung; 1.35 µM in the assay with SR leukemia. Besides, the TGI in the assay on SK-OV-3 ovarian came out at 3.77 µM; in the assay on M14 melanoma it was 2.61 µM; in the assay with A498 renal, 4.45 µM; in the assay with HCT-15 colon it was 3.49 µM.

Consider `[2H]C([2H])([2H])NC(=O)c1nnc(NC(=O)C2CC2)cc1Nc1cccc(-c2ncn(C)n2)c1OC`, for which the GI50 with 786-0 renal is 28.4 µM; with COLO 205 colon, 97.1 µM; in the assay with MDA-MB-231 breast it was 19.1 µM; in the assay with NCI-H23 lung it was 91.9 µM; in the assay with NCI-H460 lung it was greater than 100 µM; in the assay with SR leukemia, 16.9 µM. Moreover, the GI50 in the assay on SK-OV-3 ovarian was 5.02 µM; in the assay on M14 melanoma it was 9.22 µM; with A498 renal, 4.12 µM; with HCT-15 colon it was 15.5 µM. For the same molecule, the TGI with 786-0 renal, in the assay with COLO 205 colon, in the assay with MDA-MB-231 breast, in the assay with NCI-H23 lung, with NCI-H460 lung and with SR leukemia was greater than 100 µM in each case. Further, the TGI in the assay on SK-OV-3 ovarian is 48.9 µM; in the assay with M14 melanoma it was greater than 100 µM; with A498 renal, greater than 100 µM; in the assay on HCT-15 colon, greater than 100 µM.

In the case of `O=[N+]([O-])c1cccc(/C=N/NC2=CS(=O)(=O)C=C2)c1`, the TGI in the assay on 786-0 renal, in the assay on COLO 205 colon, with MDA-MB-231 breast, with NCI-H23 lung, in the assay with NCI-H460 lung and with SR leukemia was greater than 100 µM in each case. For the same molecule, the TGI in the assay with SK-OV-3 ovarian, with M14 melanoma, in the assay on A498 renal and with HCT-15 colon was greater than 100 µM in each case.

For `O=[N+]([O-])c1ccc(NN=C2CN3CCN(C2)c2ccccc23)c([N+](=O)[O-])c1`, the TGI in the assay with 786-0 renal, in the assay with COLO 205 colon, with MDA-MB-231 breast, in the assay on NCI-H23 lung, in the assay on NCI-H460 lung and in the assay on SR leukemia was greater than 100 µM each time. The TGI in the assay with SK-OV-3 ovarian, in the assay with M14 melanoma, in the assay with A498 renal and in the assay on HCT-15 colon was greater than 100 µM throughout.

Turning to `COc1ccc(/C=C(/c2ccccc2)[N+](=O)[O-])c(OC)c1`, the GI50 in the assay with 786-0 renal was 1.62 µM; in the assay on COLO 205 colon, 2.04 µM; with MDA-MB-231 breast it was 2 µM; in the assay with NCI-H23 lung, 1.93 µM; in the assay with NCI-H460 lung it was 1.87 µM; in the assay on SR leukemia, 0.641 µM. The GI50 is 3.1 µM with SK-OV-3 ovarian, 1.48 µM in the assay with M14 melanoma, 1.55 µM with A498 renal and 0.576 µM with HCT-15 colon. The TGI in the assay with 786-0 renal amounted to 3.16 µM; with COLO 205 colon, 4.28 µM; in the assay on MDA-MB-231 breast, 4.16 µM; in the assay with NCI-H23 lung it was 4.76 µM; with NCI-H460 lung, 3.87 µM; with SR leukemia, 16.2 µM. In addition, the TGI in the assay with SK-OV-3 ovarian worked out at 9.57 µM; with M14 melanoma it was 3.51 µM; with A498 renal, 2.99 µM; with HCT-15 colon, 2.13 µM.

For `COC(=O)c1c2c(c(C)[n+]([O-])c1C)C(=O)C=C(NCc1ccccc1)C2=O`, the GI50 was 2.33 µM in the assay on 786-0 renal; 0.274 µM with COLO 205 colon; 0.326 µM in the assay on MDA-MB-231 breast; 0.632 µM in the assay with NCI-H23 lung; 0.872 µM in the assay on NCI-H460 lung; 0.895 µM with SR leukemia. The GI50 was 2.03 µM in the assay on SK-OV-3 ovarian, 0.55 µM with M14 melanoma, 1.57 µM in the assay on A498 renal and 0.426 µM in the assay with HCT-15 colon. Moreover, the TGI was found to be 6.88 µM with 786-0 renal; 0.776 µM in the assay on COLO 205 colon; 2.68 µM in the assay on MDA-MB-231 breast; 2.46 µM with NCI-H23 lung; 2.73 µM with NCI-H460 lung; 5.66 µM in the assay with SR leukemia. Also, the TGI with SK-OV-3 ovarian turned out to be 4.18 µM; in the assay on M14 melanoma, 1.87 µM; in the assay on A498 renal, 2.96 µM; with HCT-15 colon, 1.8 µM.

The values above are taken from PubChem BioAssay (NCI).
